Laboratory results as given in patent US20160082015A1, “METHODS, COMPOSITIONS AND KITS FOR PROMOTING MOTOR NEURON SURVIVAL AND TREATING AND DIAGNOSING NEURODEGENERATIVE DISORDERS” (PRESIDENT AND FELLOWS OF HARVARD COLLEGE, priority 2013, published 2016).
Entries after “also recorded” stand apart in the source; their conditions may differ.

Legend:
HB9::GFP MNs = experiment: Mouse MN survival assay, trophic factor withdrawal; conditions: for survival of HB9::GFP MNs: trophic factors removed and compound added day 4, fixed day 7
Description: For the small molecule screen or for standard survival assays, freshly dissociated EBs were plated at a density of 8,000 GFP^+ cells (384-well) or 30.000 GFP+ cells (96-well) per well. Four days later (day 4), trophic factors (BDNF, GDNF and CNTF) were removed, and individual compounds were added to the wells. For the primary screen each was tested at three concentrations (0.1 μM, 1 μM and 10 μM) in duplicate. […] The number of MNs surviving was analyzed by counting the remaining GFP^+ cells in the whole well. Total cell numbers were obtained by counting Hoechst-positive nuclei. A size threshold was set based on control cultures to eliminate apoptotic MNs Unless stated otherwise, survival is measured as fold-increase compared to cultures maintained without trophic factors.
For long-term MN survival assays, MN cultures were fed with fresh medium and compounds every two days until fixation and quantification as above.
All primary hits were subsequently tested in a nine-point dose-response assay, using the same screening protocol.

HGK = HGK (Homo sapiens, UniProt O95819); experiment: Kinase activity assay with MBP substrate; assay type: biochemical; conditions: recombinant kinase, myelin basic protein substrate
Text: (§1) The enzymatic reaction was stopped with Laemmli buffer and samples were separated in a polyacrylamide gel. Finally, the gel was exposed to a Storage Phosphor Screen (GE Healthcare) and scanned in a Typhoon 9400 scanner (GE Healthcare). Signal density was estimated with Quantity One software (Bio-Rad).

MLK3 = target: T1, MLK3 (Homo sapiens, UniProt Q16584); experiment: Kinase activity assay with MBP substrate; assay type: biochemical; conditions: recombinant kinase, myelin basic protein substrate
T1 construct: purchased SignalChem
Text: as §1

wild-type human SOD1 = experiment: SOD1 protein levels by Western blotting; assay type: cell-based; conditions: wtSOD1/Hb9::GFP cultures
Description: In FIG. 5A cultures grown for 21 days in the indicated conditions were analyzed for levels of human SOD1 protein. The antibody used was specific for human SOD1, as is seen by the lack of staining on wild-type mouse MNs (HB9::GFP). When analyzed on day 21, levels of mutant SOD1^G93A protein, but not wt SOD1 protein, were decreased when cells were treated with kenpaullone in the absence of trophic factors. When analyzed on day 21, SOD1^G93A protein, but not wt SOD1 protein, was decreased when cultures were treated with kenpaullone in the presence of trophic factors as well (FIG. 5B). […] By this analysis, again on day 21, the average amount of SOD1 per MN was decreased by kenpaullone treatment in both +TF and −TF conditions. Scale bar represents 50 μm (FIG. 5C). Data are presented as mean±SEM. * p<0.05, *** p<0.001 (Student's t test, two-tailed).
Since the additional death undergone by the SOD1^G93A/HB9::GFP MNs seems likely to relate to their expression of high levels of SOD1^G93A protein, one possibility is that kenpaullone could act in part by reducing those levels. Kenpaullone was added to cultures on day 4, and the levels of mutant SOD1^G93A protein were analyzed by Western blotting on day 21 (FIGS. 5A and 5B). […] The endogenous mouse SOD1 protein was not affected in either HB9::GFP or SOD1^G93A/HB9::GFP cultures (data not shown). […]

[1] = test system: GSK-3-deficient MN cultures; experiment: MN survival using GSK-3 knockout lines; assay type: cell-based, mouse; conditions: trophic factors withdrawn
Text: In these cultures, approximately 70% of Isl+/MAP2+ cells were GFP+(i.e., MNs). However, after trophic factor withdrawal, because MNs die selectively under these conditions, only about 50% of Isl+/MAP2+ cells were GFP+MNs. This means that counting Isl+/MAP2+ cells could overestimate the amount of survival after trophic factor withdrawal by approximately 40%. When deprived of neurotrophins, 35% of wild-type Isl+/MAP2+ cells survived, while 44%, 57% and 54% of Isl+/MAP2+ cells in GSK-3[…]-KO, GSK-3[…]-KO and 3/4-KO cultures survived. Using the correction factor for overcounting surviving MNs, this would mean that wild-type MN survival would be approximately 25%, while the KO MNs would have 31%, 41% and 39% survival, respectively.
The inventors used another approach to address the issue of GSK-3 and survival. The inventors produced MNs from the following mouse ESC lines: GSK-3α^−/− (GSK-3α-KO), GSK-3^−/− (GSK-3β-KO), and GSK-3α^+/−/GSK-3β^−/− (3/4-KO). Note that ESCs that are GSK-3α^−/−/GSK-3β^−/− were not able to differentiate into neurons (Doble et al., 2007). Cell death was again initiated by withdrawal of trophic factors and the ability of kenpaullone to promote survival was evaluated. […] The inventors validated this staining method using MN cultures prepared from Hb9::GFP ESCs. In these cultures, approximately 70% of Isl^+/MAP2^+ cells were GFP^+ (i.e., MNs). […]

ubiquitin = experiment: MN ubiquitin levels by single cell imaging; assay type: cell-based, mouse; conditions: days 21 and 28, SOD1^G93A/HB9::GFP MNs
Text: Insets show higher magnification of cells contained within white circles. Data are presented as mean±SEM. * p<0.05 (Student's t test, two-tailed). Scale bar represents 50 μm.
It has been shown that SOD1^G93A accumulates in ubiquitinated aggregates after about 2 weeks of culture (Di Giorgio et al., 2007). Ubiquitinated proteins are found to be elevated in MNs of ALS patients and SOD1^G93A mice during neural degeneration (Watanabe et al., 2001; Wang et al., 2003). The inventors also observed the appearance of aggregates in their cultures at these later times (FIG. 5C). This led us to examine when differences in SOD1^G93A protein levels began to appear. […] Thus, the ability of kenpaullone to reduce the later periods of SOD1^G93A/HB9::GFP death coincides in time with the decreased levels of SOD1^G93A and ubiquitin.

Sequence of HGK (O95819 whole entry): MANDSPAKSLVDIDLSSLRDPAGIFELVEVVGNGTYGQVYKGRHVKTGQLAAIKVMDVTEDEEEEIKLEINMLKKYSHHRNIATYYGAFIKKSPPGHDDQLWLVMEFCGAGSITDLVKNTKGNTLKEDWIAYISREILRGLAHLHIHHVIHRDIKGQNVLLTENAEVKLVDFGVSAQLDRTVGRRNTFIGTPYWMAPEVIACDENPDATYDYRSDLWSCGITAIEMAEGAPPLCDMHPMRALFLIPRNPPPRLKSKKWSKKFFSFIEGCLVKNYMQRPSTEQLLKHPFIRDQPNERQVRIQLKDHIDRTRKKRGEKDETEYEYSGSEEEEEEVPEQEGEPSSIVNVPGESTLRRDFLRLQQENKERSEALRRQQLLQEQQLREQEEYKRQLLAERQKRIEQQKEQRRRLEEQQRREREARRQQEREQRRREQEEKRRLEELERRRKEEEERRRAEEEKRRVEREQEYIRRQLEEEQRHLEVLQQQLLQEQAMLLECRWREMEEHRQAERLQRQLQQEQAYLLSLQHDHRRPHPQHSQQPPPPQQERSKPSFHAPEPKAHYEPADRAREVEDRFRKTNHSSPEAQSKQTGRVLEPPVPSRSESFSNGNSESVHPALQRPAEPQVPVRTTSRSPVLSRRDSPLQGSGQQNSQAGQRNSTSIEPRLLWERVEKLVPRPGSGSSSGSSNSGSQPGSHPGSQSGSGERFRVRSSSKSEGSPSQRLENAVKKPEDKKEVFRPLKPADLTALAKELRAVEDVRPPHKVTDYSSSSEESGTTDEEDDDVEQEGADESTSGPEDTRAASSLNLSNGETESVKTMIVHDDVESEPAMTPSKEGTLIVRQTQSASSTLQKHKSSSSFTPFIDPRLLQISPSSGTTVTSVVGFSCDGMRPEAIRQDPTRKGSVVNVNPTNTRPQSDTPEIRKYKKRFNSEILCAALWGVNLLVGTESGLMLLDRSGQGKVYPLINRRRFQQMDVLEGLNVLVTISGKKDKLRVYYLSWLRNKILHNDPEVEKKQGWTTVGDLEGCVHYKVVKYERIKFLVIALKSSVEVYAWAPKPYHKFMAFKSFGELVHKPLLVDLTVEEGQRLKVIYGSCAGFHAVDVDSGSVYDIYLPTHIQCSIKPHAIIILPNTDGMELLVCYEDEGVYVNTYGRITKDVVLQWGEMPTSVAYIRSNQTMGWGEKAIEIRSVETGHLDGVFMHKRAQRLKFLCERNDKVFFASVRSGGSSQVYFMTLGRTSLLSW
T1 sequence (Q16584 whole entry): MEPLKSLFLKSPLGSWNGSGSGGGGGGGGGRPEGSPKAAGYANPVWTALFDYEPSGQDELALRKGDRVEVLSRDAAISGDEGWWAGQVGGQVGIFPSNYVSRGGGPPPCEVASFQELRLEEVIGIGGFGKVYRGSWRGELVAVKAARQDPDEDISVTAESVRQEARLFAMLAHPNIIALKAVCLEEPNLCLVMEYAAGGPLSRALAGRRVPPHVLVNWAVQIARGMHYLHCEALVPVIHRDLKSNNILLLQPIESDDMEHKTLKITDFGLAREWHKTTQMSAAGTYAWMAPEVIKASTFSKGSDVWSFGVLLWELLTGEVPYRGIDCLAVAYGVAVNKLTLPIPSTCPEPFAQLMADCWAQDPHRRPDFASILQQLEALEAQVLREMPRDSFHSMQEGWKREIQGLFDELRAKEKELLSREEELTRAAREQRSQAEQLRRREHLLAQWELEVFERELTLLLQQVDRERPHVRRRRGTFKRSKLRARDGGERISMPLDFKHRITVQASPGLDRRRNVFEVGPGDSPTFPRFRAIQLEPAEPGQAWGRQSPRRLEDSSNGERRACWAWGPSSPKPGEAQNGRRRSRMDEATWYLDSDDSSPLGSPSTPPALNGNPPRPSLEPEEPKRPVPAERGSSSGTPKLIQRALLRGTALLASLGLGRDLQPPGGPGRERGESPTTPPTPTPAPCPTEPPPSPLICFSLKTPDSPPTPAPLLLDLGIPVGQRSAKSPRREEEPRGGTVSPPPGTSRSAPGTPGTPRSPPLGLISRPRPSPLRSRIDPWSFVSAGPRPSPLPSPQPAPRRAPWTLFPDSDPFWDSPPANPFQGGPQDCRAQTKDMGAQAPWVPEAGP

O=C1Cc2c([nH]c3ccc(Br)cc23)-c2ccccc2N1 [Kenpaullone]
MN survival effect after Ara-C treatment to eliminate dividing progenitors (HB9::GFP MNs; Ara-C before trophic factor withdrawal): did not decrease the effect
long-term survival of MNs without trophic factors (HB9::GFP MNs; days 7, 14, 21 and 28): improved survival
MN death in complete medium (+TF) (HB9::GFP MNs; first two weeks): reduced the death
survival of FACS purified MNs (HB9::GFP MNs; highly enriched Hb9::GFP MN cultures, Ara-C, trophic factors removed): still able to promote survival
survival of HB9::GFP MNs (HB9::GFP MNs): strong effects
survival of HB9::GFP MNs (HB9::GFP MNs; listed as kenpaullone): potent survival promoting effects
HGK activity (HGK): inhibited; also recorded: strongly inhibits
MLK3 activity (MLK3): not
levels of wild-type human SOD1 (wild-type human SOD1): no effect
MN survival in GSK-3-deficient cultures [1]: still active
MN levels of ubiquitin (ubiquitin): reduced
